Laboratory results: paper PMC6540015, “New Quinolone-Based Thiosemicarbazones Showing Activity Against Plasmodium falciparum and Mycobacterium tuberculosis” (Molecules, 2019)
Values after ≈ are worked out from the molar mass of the structure shown. Read-outs that look alike come from different tables or passages of the source.

How the values were obtained:
[1] = tested on: M. tuberculosis H37Rv strain; test: microbe, parasite or virus in culture; format: cell-based; conditions: Mycobacterium tuberculosis, concentration inhibiting 90% of bacterial population; for MIC: read-out: MIC90 H37Rv
[2] = tested on: 3D7 strain of Plasmodium falciparum; test: In vitro anti-plasmodial pLDH assay; format: cell-based
[3] = Plasmodium falciparum, 3D7, 48 h, read-out: IC50 Pf 3D7, chloroquine sensitive strain 3D7 of P. falciparum, na = not active
[4] = Plasmodium falciparum, chloroquine sensitive strain 3D7 of P. falciparum, 48 h, na = not active, read-out: IC50 Pf 3D7

SMILES | MIC90 [1] | MIC [1] | IC50 [2, 3] | melting point | IC50 [2, 4] | IC50 ([2]; read-out: IC50 Pf 3D7, chloroquine sensitive strain 3D7 of P. falciparum, 48 h, na = not active) | IC50 Pf 3D7 ([2]; chloroquine sensitive strain 3D7 of P. falciparum, 48 h, na = not active)
C/C(=N\NC(N)=S)c1ccc2c(c1)c(=O)c(C(=O)NCCNCCO)cn2Cc1ccccc1 [Compound 13, (E)-1-benzyl-6-(1-(2-carbamothioylhydrazono)ethyl)-N-(2-((2-hydroxyethyl)amino)ethyl)-4-oxo-1,4-dihydroquinolone-3-carboxamide] | 2.7 µM (≈ 1.3 µg/mL) | 2.7 µM (≈ 1.3 µg/mL) | 4.1 µM | 197 to 199 °C | – | – | –
CO[C@H]1/C=C/O[C@@]2(C)Oc3c(C)c(O)c4c(O)c(c(/C=N/N5CCN(C)CC5)c(O)c4c3C2=O)NC(=O)/C(C)=C\C=C\[C@H](C)[C@H](O)[C@@H](C)[C@@H](O)[C@@H](C)[C@H](OC(C)=O)[C@@H]1C [RF, Rifampicin, reference compound] | 0.062 µM (≈ 0.051 µg/mL) | – | – | – | – | – | –
COCCNC(=O)c1cn(Cc2ccc(Cl)cc2Cl)c2ccc(/C(C)=N/NC(N)=S)cc2c1=O [Compound 19, (E)-6-(1-(2-carbamothioylhydrazono)ethyl)-1-(2,4-dichlorobenzyl)-N-(2-methoxyethyl)-4-oxo-1,4-dihydroquinolone-3-carboxamide] | 10.2 µM (≈ 5.31 µg/mL) | – | – | 209 to 211 °C | – | – | –
C/C(=N\NC(N)=S)c1ccc2c(c1)c(=O)c(C(=O)NCCNCCO)cn2Cc1ccc(Cl)cc1Cl [Compound 16, (E)-6-(1-(2-carbamothioylhydrazono)ethyl)-1-(2,4-dichlorobenzyl)-N-(2-((2-hydroxyethyl)amino)ethyl)-4-oxo-1,4-dihydroquinolone-3-carboxamide] | 4.8 µM (≈ 2.64 µg/mL) | 4.8 µM (≈ 2.64 µg/mL) | 3.1 µM | 205 to 207 °C | – | – | –
C/C(=N\NC(N)=S)c1ccc2c(c1)c(=O)c(C(=O)NCCNCCO)cn2Cc1ccc(C(F)(F)F)cc1 [Compound 15, (E)-6-(1-(2-carbamothioylhydrazono)ethyl)-N-(2-((2-hydroxyethyl)amino)ethyl)-4-oxo-1-(4-(trifluoromethyl)benzyl)-1,4-dihydroquinolone-3-carboxamide] | 2 µM (≈ 1.1 µg/mL) | – | 1.2 µM | 199 to 201 °C | – | – | –
CCOC(=O)c1cn(Cc2ccc(Cl)cc2Cl)c2ccc(/C(C)=N/NC(N)=S)cc2c1=O [Compound 21, Ethyl-(E)-6-(1-(2-carbamothioylhydrazono)ethyl)-1-(2,4-dichlorobenzyl)-4-oxo-1,4-dihydroquinolone-3-carboxylate] | 31.6 µM (≈ 15.5 µg/mL) | 31.6 µM (≈ 15.5 µg/mL) | – | 211 to 213 °C | – | – | –
CCOC(=O)c1c[nH]c2ccc(C(C)=O)cc2c1=O [Compound 8] | – | – | – | – | 4 µM | – | –
CCn1cc(C(=O)NCCCn2ccnc2)c(=O)c2cc(/C(C)=N/NC(N)=S)ccc21 [Compound 11, (E)-N-(3-(1H-imidazol-1-yl)propyl)-6-(1-(2-carbamothioylhydrazono)ethyl)-1-ethyl-4-oxo-1,4-dihydroquinolone-3-carboxamide] | > 125 µM | > 125 µM | – | 187 to 189 °C | 3.7 µM | – | –
COCCNC(=O)c1cn(Cc2ccccc2)c2ccc(/C(C)=N/NC(N)=S)cc2c1=O [Compound 17, (E)-1-benzyl-6-(1-(2-carbamothioylhydrazono)ethyl)-N-(2-methoxyethyl)-4-oxo-1,4-dihydroquinolone-3-carboxamide] | 44.2 µM (≈ 20 µg/mL) | 44.2 µM (≈ 20 µg/mL) | 24.6 µM | 199 to 200 °C | – | – | –
CCN(CC)CCCC(C)Nc1ccnc2cc(Cl)ccc12 (stereo not drawn) [CQ, Chloroquine, reference compound] | – | – | – | – | 0.012 µM | – | –
C/C(=N\NC(N)=S)c1ccc2c(c1)c(=O)c(C(=O)NCCNCCO)cn2Cc1ccc(Br)cc1 [Compound 14, (E)-1-(4-bromobenzyl)-6-(1-(2-carbamothioylhydrazono)ethyl)-N-(2-((2-hydroxyethyl)amino)ethyl)-4-oxo-1,4-dihydroquinolone-3-carboxamide] | 10.3 µM (≈ 5.76 µg/mL) | 10.3 µM (≈ 5.76 µg/mL) | 4 µM | 200 to 202 °C | – | 4.7 µM | –
CCn1cc(C(=O)NCCNCCO)c(=O)c2cc(/C(C)=N/NC(N)=S)ccc21 [Compound 12, (E)-6-(1-(2-carbamothioylhydrazono)ethyl)-1-ethyl-N-(2-((2-hydroxyethyl)amino)ethyl)-4-oxo-1,4-dihydroquinolone-3-carboxamide] | 73.4 µM (≈ 30.7 µg/mL) | 73.4 µM (≈ 30.7 µg/mL) | – | 183 to 185 °C | – | – | not active
COCCNC(=O)c1cn(Cc2ccc(Br)cc2)c2ccc(/C(C)=N/NC(N)=S)cc2c1=O [Compound 18, (E)-1-(4-bromobenzyl)-6-(1-(2-carbamothioylhydrazono)ethyl)-N-(2-methoxyethyl)-4-oxo-1,4-dihydroquinolone-3-carboxamide] | 15 µM (≈ 7.96 µg/mL) | – | 9.9 µM | 204 to 206 °C | – | – | –
